Data on one molecule can be found in patent US7320978B2, “Oxazole derivatives, preparation and therapeutic use thereof” (Sanofi-Aventis, priority 2004, dated 2008).

The melting point is the temperature of the solid-liquid transition. `CC(=O)C1(c2ccccc2)CCN(C(=O)c2nc(-c3ccc(Cl)cc3)c(-c3ccc(Cl)cc3Cl)o2)CC1` yielded a melting point of 175 °C.
